Laboratory results taken from paper PMC8252737 (Angewandte Chemie (International Ed. in English), 2021).

Assays:
EV D68 3C protease [1] = biological target: T1, EV D68 3C protease (Enterovirus D68, UniProt A1E4A3); test: Tryptic digest and MS of protein-inhibitor complex; assay type: binding; conditions: trypsin digest of protein-inhibitor complex
T1 sequence (A1E4A3 1549-1731): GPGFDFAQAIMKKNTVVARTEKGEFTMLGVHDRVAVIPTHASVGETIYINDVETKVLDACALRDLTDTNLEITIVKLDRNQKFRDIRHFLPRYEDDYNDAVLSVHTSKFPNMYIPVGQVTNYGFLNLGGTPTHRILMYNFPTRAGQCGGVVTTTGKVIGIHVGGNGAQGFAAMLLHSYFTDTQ

EV D68 3C protease [2] = biological target: T1, EV D68 3C protease; test: Fragment ligation screening / FRET assay of fragments and aldehyde 1; assay type: biochemical; conditions: fragment 19 μM + aldehyde 1 19 μM, 2 h incubation, p<0.05

## CCOC(=O)C=Cc1cccc(C(N)=O)c1 [Compound 13, O‐ethyl 3‐carbamoyl‐cinnamoyl ester]
EV D68 3C protease [1]
  Alkylation of the 13mer peptide containing Cys147: complete alkylation

## CCOC(=O)CC#N [Compound F1, O‐ethyl 2‐cyano‐acetate]
EV D68 3C protease [2]
  Inhibition of the protease in combination with aldehyde 1 compared to the aldehyde alone: significantly increased inhibition

## CC(=O)CC#N [Compound F4, 3‐oxo‐butane nitrile]
EV D68 3C protease [2]
  Inhibition of the protease in combination with aldehyde 1 compared to the aldehyde alone: significantly increased inhibition
